In publication PMC3236397 (Frontiers in Pharmacology, 2011) one finds IC50 data, which are given here for one compound.

Molecules are shown by their SMILES.

The target in this experiment is Nav1.6 (Homo sapiens, UniProt Q9UQD0). Briefly: IonWorks Quattro 2-pulse inactivated-state protocol. In kind it is cell-based. Particulars: Predicted IC50 potency values Nav1.6 P1, Pulse 1, 2-pulse protocol.
Sequence of Nav1.6 (Q9UQD0 whole entry): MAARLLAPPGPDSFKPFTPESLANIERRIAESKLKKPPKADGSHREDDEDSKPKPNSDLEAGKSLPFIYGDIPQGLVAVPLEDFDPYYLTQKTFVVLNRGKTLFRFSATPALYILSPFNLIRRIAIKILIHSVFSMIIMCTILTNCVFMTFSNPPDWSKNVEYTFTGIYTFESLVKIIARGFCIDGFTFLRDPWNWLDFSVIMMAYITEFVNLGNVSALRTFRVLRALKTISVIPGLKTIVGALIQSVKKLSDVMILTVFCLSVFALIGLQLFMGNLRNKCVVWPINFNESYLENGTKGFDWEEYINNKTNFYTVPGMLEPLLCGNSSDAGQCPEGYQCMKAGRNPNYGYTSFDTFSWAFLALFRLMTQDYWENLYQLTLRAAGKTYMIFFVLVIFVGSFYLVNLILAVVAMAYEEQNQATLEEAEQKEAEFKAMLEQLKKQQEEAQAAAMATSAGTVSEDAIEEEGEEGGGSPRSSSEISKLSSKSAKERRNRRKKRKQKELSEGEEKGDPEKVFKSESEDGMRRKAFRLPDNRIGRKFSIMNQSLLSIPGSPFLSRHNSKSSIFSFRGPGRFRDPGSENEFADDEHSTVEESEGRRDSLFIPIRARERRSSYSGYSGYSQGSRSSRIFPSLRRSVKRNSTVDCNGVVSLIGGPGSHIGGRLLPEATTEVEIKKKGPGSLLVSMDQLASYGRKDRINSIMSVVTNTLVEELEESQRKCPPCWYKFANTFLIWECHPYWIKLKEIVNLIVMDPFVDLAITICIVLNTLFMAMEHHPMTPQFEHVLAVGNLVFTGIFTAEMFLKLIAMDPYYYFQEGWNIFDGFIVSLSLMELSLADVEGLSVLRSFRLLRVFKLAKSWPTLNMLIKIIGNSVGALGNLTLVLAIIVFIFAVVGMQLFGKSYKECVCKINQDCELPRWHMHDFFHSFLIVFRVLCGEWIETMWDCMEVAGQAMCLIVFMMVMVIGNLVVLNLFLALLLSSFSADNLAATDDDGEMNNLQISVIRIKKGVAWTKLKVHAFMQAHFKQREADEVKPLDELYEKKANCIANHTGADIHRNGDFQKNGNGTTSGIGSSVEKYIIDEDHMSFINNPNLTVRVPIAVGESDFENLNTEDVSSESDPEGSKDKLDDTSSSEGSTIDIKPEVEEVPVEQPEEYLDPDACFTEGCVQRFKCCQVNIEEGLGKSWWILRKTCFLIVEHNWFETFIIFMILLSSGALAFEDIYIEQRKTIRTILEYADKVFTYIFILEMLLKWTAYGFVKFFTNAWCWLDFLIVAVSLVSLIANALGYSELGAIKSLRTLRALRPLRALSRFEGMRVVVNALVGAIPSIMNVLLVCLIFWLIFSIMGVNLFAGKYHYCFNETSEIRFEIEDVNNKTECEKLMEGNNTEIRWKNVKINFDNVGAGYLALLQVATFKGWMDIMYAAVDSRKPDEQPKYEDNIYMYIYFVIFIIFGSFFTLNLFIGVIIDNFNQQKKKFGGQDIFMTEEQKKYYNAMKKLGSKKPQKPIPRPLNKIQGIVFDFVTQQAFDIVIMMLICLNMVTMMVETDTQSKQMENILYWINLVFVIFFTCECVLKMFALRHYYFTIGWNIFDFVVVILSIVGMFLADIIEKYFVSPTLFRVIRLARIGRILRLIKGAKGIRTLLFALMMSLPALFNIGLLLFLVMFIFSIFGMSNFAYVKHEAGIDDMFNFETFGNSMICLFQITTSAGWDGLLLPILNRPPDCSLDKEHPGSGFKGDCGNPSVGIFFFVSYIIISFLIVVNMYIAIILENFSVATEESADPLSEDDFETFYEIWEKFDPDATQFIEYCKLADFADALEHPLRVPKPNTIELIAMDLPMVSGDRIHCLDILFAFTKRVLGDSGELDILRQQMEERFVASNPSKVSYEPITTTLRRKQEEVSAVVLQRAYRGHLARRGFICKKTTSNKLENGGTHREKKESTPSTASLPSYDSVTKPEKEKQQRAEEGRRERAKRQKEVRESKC

Regarding `CCN(CC)CC(=O)Nc1c(C)cccc1C` [Lidocaine], the IC50 was 270 µM.
